According to the supplement of paper PMC11061612:

Columns and labels:
Assay in all cases: combination Emax (second highest fraction inhibited in the dose matrix, 72 h); higher = more inhibition; extreme values may be limits of the assay
[1] = system: ZR-75-30 (Breast Carcinoma)
Summary of the method: (§1)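 Cell lines in DMEM/F12 or RPMI with 10% FBS were plated in 1536-well plates, held 24 hours at 37°C, 5% CO2, then given two-drug dose matrices for 72 hours (DMSO typically 0.2%). Viability was read by CellTiter-Glo 2.0 luminescence and scaled as inhibition from 0 (vehicle wells) to 1 (blank wells). Combination Emax is the second-highest inhibition in the matrix; Bliss excess is observed combination effect minus expected EA + EB − EA·EB, EA and EB being single-agent effects.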

[2] = system: NCI-H1963 (Small Cell Lung Carcinoma)
Summary of the method: as §1

[3] = system: TUR (Acute Myeloid Leukemia)
Summary of the method: as §1

ES6 (Ewing's Sarcoma) = system: ES6 (Ewing's Sarcoma)
Summary of the method: as §1

GAK (Melanoma) = system: GAK (Melanoma)
Summary of the method: as §1

[4] = system: SNU-423 (Hepatocellular Carcinoma)
Summary of the method: as §1

[5] = system: NAMALWA (Burkitt's Lymphoma)
Summary of the method: as §1

NCI-H226 (Mesothelioma) = system: NCI-H226 (Mesothelioma)
Summary of the method: as §1

[6] = system: SK-CO-1 (Colorectal Carcinoma)
Summary of the method: as §1

[7] = system: CPC-N (Small Cell Lung Carcinoma)
Summary of the method: as §1

[8] = system: SAT (Head and Neck Carcinoma)
Summary of the method: as §1

[9] = system: CL-11 (Colorectal Carcinoma)
Summary of the method: as §1

SK-N-SH (Neuroblastoma) = system: SK-N-SH (Neuroblastoma)
Summary of the method: as §1

[10] = system: MOLT-13 (T-Lymphoblastic Leukemia)
Summary of the method: as §1

Row | SMILES | combination Emax [1] | combination Emax [2] | combination Emax [3] | combination Emax (ES6 (Ewing's Sarcoma)) | combination Emax (GAK (Melanoma)) | combination Emax [4] | combination Emax [5] | combination Emax (NCI-H226 (Mesothelioma)) | combination Emax [6] | combination Emax [7] | combination Emax [8] | combination Emax [9] | combination Emax (SK-N-SH (Neuroblastoma)) | combination Emax [10]
1 | C[C@@H]1COCCN1c1cc(C2([S@](C)(=N)=O)CC2)nc(-c2ccnc3[nH]ccc23)n1 [AZD6738] + O=C(c1cc(Cc2n[nH]c(=O)c3ccccc23)ccc1F)N1CCN(C(=O)C2CC2)CC1 [Olaparib] (first compound max 10 µM, 7x7, partner max 10 µM) | 0.213 | 0.804 | 0.907 | 0.522 | 0.564 | 0.576 | 0.938 | 0.207 | 0.768 | 0.912 | 0.371 | 0.758 | 0.929 | 0.999
2 | Cc1c2c(nn1C)CSCc1cc(n(C)n1)CSc1cc(c3ccccc3c1)OCCCc1c(C(=O)O)n(C)c3c-2c(Cl)ccc13 [AZD5991] + C[C@@H](Nc1cc(F)cc(F)c1)c1cc(C(=O)N(C)C)cc2c(=O)cc(N3CCOCC3)oc12 [AZD8186] (first compound max 1 µM, 7x7, partner max 3 µM) | 0.528 | 0.437 | 0.391 | 0.354 | 0.349 | 0.431 | 0.986 | 0.245 | 0.283 | 0.294 | 0.747 | 0.155 | 0.481 | 1
3 | CN(C)CCCOc1ccc(-c2ccc3ncc4c(c3c2)n(C2CCOCC2)c(=O)n4C)cn1 [AZD0156] + C=CCn1c(=O)c2cnc(Nc3ccc(N4CCN(C)CC4)cc3)nc2n1-c1cccc(C(C)(C)O)n1 [AZD1775] (first compound max 1 µM, partner max 1 µM) | 0.156 | 0.87 | 0.772 | 0.306 | 0.745 | 0.506 | 0.974 | 0.196 | 0.562 | 0.972 | 0.427 | 0.545 | 0.799 | 0.977
4 | CN(C)CCCOc1ccc(-c2ccc3ncc4c(c3c2)n(C2CCOCC2)c(=O)n4C)cn1 [AZD0156] + CCN(CCO)CCCOc1ccc2c(Nc3cc(CC(=O)Nc4cccc(F)c4)[nH]n3)ncnc2c1 [AZD2811] (first compound max 1 µM, 7x7, partner max 1 µM) | 0.135 | 0.857 | 0.218 | 0.176 | 0.198 | 0.194 | 0.402 | 0.0682 | 0.798 | 0.794 | 0.142 | 0.0968 | 0.479 | 0.99
5 | CN(C)CCCOc1ccc(-c2ccc3ncc4c(c3c2)n(C2CCOCC2)c(=O)n4C)cn1 [AZD0156] + C[C@@H]1COCCN1C2=NC(=NC(=C2)C3(CC3)[S@](=N)(=O)C)C4=C5C=CNC5=NC=C4 [AZD6738] (first compound max 1 µM, 7x7, partner max 10 µM) | 0.189 | 0.804 | 0.923 | 0.557 | 0.703 | 0.495 | 0.96 | 0.0975 | 0.721 | 0.952 | 0.361 | 0.767 | 0.87 | 0.925
6 | Cc1cc2ncnn2cc1Nc1ncc2c(n1)n(C1CCOCC1)c(=O)n2C [AZD7648] + CCN(CCO)CCCOc1ccc2c(Nc3cc(CC(=O)Nc4cccc(F)c4)[nH]n3)ncnc2c1 [AZD2811] (first compound max 10 µM, 7x7, partner max 1 µM) | 0.141 | 0.866 | 0.284 | 0.407 | 0.237 | 0.341 | 0.432 | 0.253 | 0.549 | 0.795 | 0.376 | 0.276 | 0.625 | 0.973
7 | CC1(C)CCC(CN2CCN(c3ccc(C(=O)NS(=O)(=O)c4ccc(NCC5CCOCC5)c([N+](=O)[O-])c4)c(Oc4cnc5[nH]ccc5c4)c3)CC2)=C(c2ccc(Cl)cc2)C1 [Venetoclax] + C=CCn1c(=O)c2cnc(Nc3ccc(N4CCN(C)CC4)cc3)nc2n1-c1cccc(C(C)(C)O)n1 [AZD1775] (first compound max 1 µM, partner max 1 µM) | 0.159 | 0.973 | 0.911 | 0.513 | 0.792 | 0.732 | 0.975 | 0.268 | 0.569 | 0.964 | 0.545 | 0.502 | 0.889 | 1
8 | CC1(C)CCC(CN2CCN(c3ccc(C(=O)NS(=O)(=O)c4ccc(NCC5CCOCC5)c([N+](=O)[O-])c4)c(Oc4cnc5[nH]ccc5c4)c3)CC2)=C(c2ccc(Cl)cc2)C1 [Venetoclax] + C[C@@H](Nc1cc(F)cc(F)c1)c1cc(C(=O)N(C)C)cc2c(=O)cc(N3CCOCC3)oc12 [AZD8186] (first compound max 1 µM, 7x7, partner max 3 µM) | 0.24 | 0.758 | 0.209 | 0.198 | 0.242 | 0.383 | 0.428 | 0.0928 | 0.187 | 0.835 | 0.345 | 0.083 | 0.403 | 0.431
9 | CC(=O)Nc1cccc(-n2c(=O)n(C3CC3)c(=O)c3c(Nc4ccc(I)cc4F)n(C)c(=O)c(C)c32)c1 [Trametinib] + Cc1nc(-c2cn3c(n2)-c2ccc(-c4cnn(C(C)(C)C(N)=O)c4)cc2OCC3)n(C(C)C)n1 [Taselisib] (first compound max 1 µM, 7x7, partner max 10 µM) | 0.667 | 0.435 | 0.992 | 0.607 | 0.985 | 0.827 | 0.589 | 0.327 | 1 | 0.362 | 0.941 | 0.989 | 0.827 | 0.698
10 | Cc1c2c(nn1C)CSCc1cc(n(C)n1)CSc1cc(c3ccccc3c1)OCCCc1c(C(=O)O)n(C)c3c-2c(Cl)ccc13 [AZD5991] + Cc1cc2ncnn2cc1Nc1ncc2c(n1)n(C1CCOCC1)c(=O)n2C [AZD7648] (first compound max 1 µM, 7x7, partner max 10 µM) | 0.307 | 0.334 | 0.557 | 0.334 | 0.305 | 0.362 | 1 | 0.203 | 0.279 | 0.245 | 0.664 | 0.133 | 0.481 | 1
11 | CCN(CCO)CCCOc1ccc2c(Nc3cc(CC(=O)Nc4cccc(F)c4)[nH]n3)ncnc2c1 [AZD2811] + C[C@@H]1COCCN1C2=NC(=NC(=C2)C3(CC3)[S@](=N)(=O)C)C4=C5C=CNC5=NC=C4 [AZD6738] (first compound max 1 µM, 7x7, partner max 10 µM) | 0.18 | 0.887 | 0.861 | 0.6 | 0.564 | 0.473 | 0.924 | 0.233 | 0.7 | 0.961 | 0.276 | 0.777 | 0.906 | 0.993
12 | CC1(C)CCC(CN2CCN(c3ccc(C(=O)NS(=O)(=O)c4ccc(NCC5CCOCC5)c([N+](=O)[O-])c4)c(Oc4cnc5[nH]ccc5c4)c3)CC2)=C(c2ccc(Cl)cc2)C1 [Venetoclax] + COc1cc(Nc2ncc3c(n2)-c2ccc(Cl)cc2C(c2c(F)cccc2OC)=NC3)ccc1C(=O)O [Alisertib] (first compound max 1 µM, 7x7, partner max 10 µM) | 0.137 | 0.949 | 0.628 | 0.277 | 0.147 | 0.361 | 0.661 | 0.224 | 0.629 | 0.835 | 0.545 | 0.673 | 0.902 | 0.896
13 | CN(CCO)CC[C@H](CSc1ccccc1)Nc1ccc(S(=O)(=O)NC(=O)c2ccc(N3CCC([C@@H](O)c4ccccc4-c4ccc(Cl)cc4)CC3)cc2)cc1S(=O)(=O)C(F)(F)F [AZD4320] + Cn1cnc2c(F)c(Nc3ccc(Br)cc3Cl)c(C(=O)NOCCO)cc21 [Selumetinib] (first compound max 1 µM, 7x7, partner max 3 µM) | 0.294 | 1 | 0.161 | 0.449 | 0.796 | 0.414 | 0.512 | 0.204 | 0.941 | 0.955 | 0.591 | 0.811 | 0.995 | 1
14 | CCN(CCO)CCCOc1ccc2c(Nc3cc(CC(=O)Nc4cccc(F)c4)[nH]n3)ncnc2c1 [AZD2811] + C=CCn1c(=O)c2cnc(Nc3ccc(N4CCN(C)CC4)cc3)nc2n1-c1cccc(C(C)(C)O)n1 [AZD1775] (first compound max 1 µM, partner max 1 µM) | 0.155 | 0.876 | 0.668 | 0.285 | 0.682 | 0.59 | 0.977 | 0.185 | 0.674 | 0.961 | 0.41 | 0.612 | 0.787 | 1
15 | COc1cccc(OCCCN)c1-c1cc(Nc2cnc(C#N)cn2)n[nH]1 [Prexasertib] + C[C@@H]1COCCN1C2=NC(=NC(=C2)C3(CC3)[S@](=N)(=O)C)C4=C5C=CNC5=NC=C4 [AZD6738] (first compound max 1 µM, 7x7, partner max 10 µM) | 0.166 | 0.952 | 1 | 0.61 | 0.753 | 0.695 | 0.986 | 0.176 | 0.656 | 1 | 0.552 | 0.764 | 0.901 | 1
16 | COc1cccc(OCCCN)c1-c1cc(Nc2cnc(C#N)cn2)n[nH]1 [Prexasertib] + O=C(c1cc(Cc2n[nH]c(=O)c3ccccc23)ccc1F)N1CCN(C(=O)C2CC2)CC1 [Olaparib] (first compound max 1 µM, 7x7, partner max 10 µM) | 0.202 | 0.908 | 1 | 0.58 | 0.668 | 0.77 | 0.983 | 0.275 | 0.643 | 0.984 | 0.595 | 0.77 | 0.834 | 1
